Source: patent US9089133B2, “Insecticide for agricultural or horticultural use and method of use thereof” (MITSUI CHEMICALS, INC., priority 2003, dated 2015)

Legend:
[1] = system: Common Cutworm (Spodoptera litura); assay: Insecticidal test for common cutworm (cabbage leaf dip); type: in vivo; details: foliar, 72 h, cabbage leaf immersed 30 seconds, 2nd-instar larvae, 25° C., three days after
Method: Insecticidal Test for Common Cutworm (Spodoptera litura)
(§1) A cabbage leaf piece was immersed in a solution prepared by diluting a test compound to a predetermined concentration for 30 seconds, and then dried in air. Then, the cabbage leaf piece was placed in a polyethylene cup of 7 cm-size in which 2nd-instar larvae of common cutworm were placed. The cup was allowed to stand in a thermostatic chamber at 25° C. Three days after, the numbers of living and dead larvae were counted. The test was carried out in two replications each containing five larvae.

[2] = system: Diamondback Moth (Plutella xylostella); assay: Insecticidal test for diamondback moth (cabbage leaf dip); type: in vivo; details: foliar, 72 h, cabbage leaf immersed 30 seconds, 2nd-instar larvae, 25° C., three days after
Method: Insecticidal Test for Diamondback Moth (Plutella xylostella)
as §1, with “cabbage leaf pieces was immersed” for “cabbage leaf piece was immersed”, “Then, the leaf piece” for “Then, the cabbage leaf piece”

How did the mortality at 1000 ppm [1] turn out when `O=C(Nc1cccc(C(=O)Nc2ccc(C(F)(F)F)cc2C(F)(F)F)c1)OCC(F)(F)C(F)(F)F` [Compound No. 250, N-(2,4-bistrifluoromethylphenyl) 3-[(2,2,3,3,3-pentafluoro-n-propyloxy)carbonylamino]benzamide] was run?
Its mortality at 1000 ppm is at least 70%.

And the mortality at 1000 ppm [2]?
Its mortality at 1000 ppm is at least 70%.
